The subject of data set [1] is human red blood cells. As to the kind of experiment: Hemolytic activity, hemoglobin release from red blood cells (12 hour protocol).
Procedure: Determination of hemolytic activity is measured through the release of hemoglobin from human red blood cells as measured spectrophotometrically.
Briefly, a dilution series of the peptide was prepared in two-fold dilutions from 512 to 1 μg/mL. Triplicate determinations of each peptide concentration were added to 1% human red blood cells and incubated for 12 hours at 37° C. The negative control for hemolysis consisted of 1% red blood cells with no peptide added. The positive control for hemolysis was 1% red blood cells in 0.15M NH4Cl. Hemoglobin release was measured at an absorbance of 562 nm.
Percent hemolysis is calculated as the ratio of the optical density (OD) of the peptide relative to the OD of the positive control for hemolysis.
Data set [2] is described as follows: Surface plasmon resonance (Biacore T-100) binding of peptides to immobilized biotin-labeled hyaluronic acid. Also noted: species or system rooster. Conditions: SPR, biotin-HA immobilized on streptavidin chip. On the procedure: Surface plasmon resonance spectroscopy (SPR) studies were performed on a Biacore T-100 to quantitate the binding of peptides to hyaluronic acid (HA). Biotin-labeled hyaluronic acid (Sigma B1557, hyaluron sodium salt from rooster comb with >97% purity, average approximately 850 kDd, 98% labeled) was immobilized on one of the four flow cells of a streptavidin-coated series S sensor chip SA. […] Peptides were then injected across the surface and the degree of binding interaction is measured in response units (RU).
The average net binding for HABP35 to HA was 399±77 RU or significant binding. The other HA binding peptides also had positive RU values.
In general terms: In SPR one partner is held on a chip, and binding of the other changes the refractive index at the surface.

For data set [3], the system named is S. aureus strain PS80. The data set can be described thus: Mouse model of S. aureus surgical wound infection. In kind it is in vivo, C57BL6 mice. Conditions: 100 μg into wound at time of challenge with 10^2 CFU; 3 days later. As to the method:
Bacterial strains. S. aureus strain PS80 (serotype 8) was obtained from the American Type Culture collection (#27700) and is a potent inducer of intraabdominal abscess formation. S. aureus COL is a methicillin resistant strain that produces a serotype 5 capsule. Staphylococci were cultivated for 24 h at 37° C. on Columbia agar (Difco Laboratories, Detroit, Mich.) supplemented with 2% NaCl.
Mouse model of S. aureus wound infection. Mice (C57BL6, male, 6-8 wk old) were obtained from Jackson Laboratories (Bar Harbor, Me.). Groups of mice (N=4/group/experiment) were anesthetized with 100 mg/kg ketamine and 10 mg/kg xylazine, their right thighs were shaved, and the surgical area was disinfected with iodine and 70% ethanol. An incision was made in the skin to expose the thigh muscle, and a 1-cm incision was made with a scalpel into the thigh muscle to the depth of the bone. The muscle was then closed with one 4-0 silk suture, and 10 μl of a S. aureus suspension ranging in dose from 10^2 to 10^4 CFU was introduced into the incision under the suture. The skin was closed with four additional Prolene sutures. The mice were euthanized at 3 days post-surgery. The wounded muscle tissue was excised, weighed (˜0.08 g), and homogenized in 1 ml of tryptic soy broth. Serial dilutions of the homogenates were plated in duplicate and results were expressed as CFU/g tissue. Peptides were administered to animals in two ways. For most experiments, HABPs were solubilized in PBS and administered with a pipet into the wound in a 10 μl volume following challenge with bacteria. A 100 μg dose was used for most experiments. For therapeutic studies, peptide was administered via a 1 ml tuberculin syringe fitted with a 25 gauge needle in a 0.25 ml volume injected into the thigh muscle containing the wound distal from the incision site.
Gross pathology and histologic analysis of host response. […] Histological examination of these wounds confirmed these findings. Muscle tissue was harvested from mice at designated intervals post-surgery, fixed in 10% buffered formalin, and mounted in paraffin; 5 to 6-μm sections were cut and stained with hematoxylin and eosin for microscopic examination. […] The cellular infiltrate was primarily comprised of PMNs and fibrin.
Statistical analyses. All animal experiments were performed at least two times and the data pooled. Comparison of S. aureus CFU/g tissue was made by the Welch modification of the unpaired Student t test (InStat, GraphPad Software, San Diego, Calif.).

Data set [4] relates to Wild Type GAS (HA encapsulated). The data set can be described thus: Fluorometry binding of FITC-conjugated peptide to encapsulated GAS. Details: species or system Group A Streptococcus. As to the method:
(§1) Bacterial strains: GAS strain 950771 is a moderately encapsulated M3 clinical isolate from a child with post-varicella necrotizing fasciitis and sepsis, and an isogenic capsule deficient mutant, 188, derived from 950771. GAS were grown in Todd-Hewitt broth (Difco) to mid-exponential phase OD650 of 0.15 at 37° C. for all experiments. Commercially available trypticase-soy agar medium supplemented with 5% vol/vol sheep blood (BAP)(PML Microbiologicals, British Columbia, Canada) were used for all plate cultures. S. equi s(ATCC 53185) and P. multocida (ATCC 11039) were purchased from ATCC and cultured as recommended. Briefly, S. equi was cultured in Todd-Hewitt broth and S. uberis and P. multocida were cultured in Brain heart infusion (Difco) to OD 650 of 0.15 at 37° C. Quantitative cultures were performed in parallel with each experiment to verify the multiplicity of infection (MOI) of the inoculum.
(§2) Binding of HABP to HA and HA-encapsulated bacteria: To assess whether HABP are able to associate specifically with the GAS capsule, bacteria were cultured to mid-log phase, for maximal HA capsule expression, and incubated with either 10 μg/ml of FITC-conjugated HABP01 or SCRM, with purified HA at 1 mg/ml, as a positive control, or an isogenic mutant strain of GAS deficient in HA capsule, as a negative control. A GAS-specific antibody was used to control for the number of bacteria per well.

Data set [5] deals with GAS. As to the kind of experiment: Bacterial translocation through polarized keratinocyte cultures (Transwell). The class given is cell-based, Group A Streptococcus. Conditions: vs PBS or SCRM. As to the method: (§3) Cell cultures: For the preparation of in vitro keratinocyte cultures, human primary OKP7 cells were derived from the oropharynx. Keratinocytes were seeded at 5×10^5 cells per well onto polycarbonate Transwell membrane supports (12 well plates, 3.0 μm pore size; Costar) or tissue culture treated plastic ware and cultured for 5-10 days at 37° C. with 5% humidified CO2 in cSFM medium with daily medium changes. Once confluent, the calcium concentration of the cSFM was increased to 1.2 mM and cells were cultured for 2 more days, before the integrity of the monolayer was assessed by measuring permeability to sodium fluorescein, and in some experiments, by measuring transepithelial electrical resistance.
(§4) Infection procedures: Keratinocyte layer cultures in Transwell inserts were inoculated in the upper chamber with GAS, S. equi, S. uberis, and P. multocida at a multiplicity of infection (MOI) of 1 bacterium per keratinocyte in the presence or absence of HABP01 or SCRM. Infected cultures were incubated at 37° C. with 5% CO2 for the desired time. In translocation experiments, Transwell inserts containing the keratinocytes were moved to new wells containing fresh medium every 2 hours to prevent overgrowth of bacteria that had translocated through the keratinocytes layer to the lower chamber. Bacterial translocation was quantified by culturing medium from the lower chamber at 2-hour intervals.
Bacterial translocation studies were performed to assess the impact of HABP01 on bacterial paracellular translocation through polarized keratinocyte cultures.
Incubation of GAS in the presence of HABP33, HABP35 and HABP42, also delayed GAS translocation. At two hours after the addition of GAS to the keratinocytes, approximately 530 CFU of GAS were detected in the lower level in cultures treated with PBS or SCRM peptide.

Data set [6] deals with GAS. The data set can be described thus: Opsonophagocytic assay with human neutrophils. The class given is cell-based, Group A Streptococcus. The settings on record: 50 μg/ml, 2 hours incubation with human neutrophils, 10% absorbed human serum. As to the method: Encapsulated GAS are resistant to killing by neutrophils in opsonophagocytic assays in the absence of antibodies that bind the bacterial surface. HABPs binding to the bacterial surface may facilitate neutrophil cytotoxicity. Opsonophagocytic assays were performed wherein GAS were incubated with 50 μg/ml of SCRM, HABP01 or HABP35 and mixed with human neutrophils in medium containing 10% absorbed human serum. Aliquots (25 μl) for quantitative culture were withdrawn immediately after mixing neutrophil with GAS and after 2 hr incubation at 37° C. The log increase or decrease in CFU's was calculated. After 2 hours of incubation, there was about a 1.5 log increase in CFU's for GAS treated with PBS or SCRM.

Data set [7] concerns Staphylococcus aureus. As to the kind of experiment: Bacterial translocation through polarized keratinocyte cultures (Transwell). In kind it is cell-based. Conditions: 100 μg/ml; vs PBS or SCRM.
Data set [8] concerns GAS internalization by keratinocytes. The data set can be described thus: Bacterial internalization by keratinocyte monolayers. In kind it is cell-based, Group A Streptococcus / human keratinocytes. The settings on record: 100 μg/ml, 4 hours. On the procedure:
Effect of HABP on bacterial internalization by keratinocytes. Encapsulated GAS are poorly internalized by keratinocytes. Yet in the presence of HABPs, intracellular encapsulated GAS are observed by microscopy. To quantify this internalization, keratinocyte monolayers were infected with HA-encapsulated bacteria in the presence of 100 μg/ml of either HABP01 or SCRM for 4 hours. Penicillin and gentamicin were added at 3 hours to kill extracellular bacteria and cells were harvested. Bacteria treated with HABP01 were internalized approximately 40-fold more efficiently than SCRM-treated or untreated samples, and at similar levels to those obtained with acapsular GAS. Internalization of acapsular GAS was unaffected by either peptide.

Data set [9] in a line: Fluorometry binding of FITC-conjugated peptide to purified HA in well. Also noted: species or system rooster. On the procedure:
Lyophilized synthetic peptides were resuspended in PBS pH7.4 prior to use in either in vitro or in vivo experiments. Fluorescein conjugation of HABP01 and SCRM was performed using 5,6 carboxyfluorescein, succinimidyl ester (5,6 FAM) (Molecular Probes, Portland, Oreg.) as per manufacturer's instructions and separated on a Sephadex G-25 column (Amersham, Piscataway, N.J.). Purified, high molecular weight rooster comb HA (Sigma-Aldrich, St Louis, Mo.) was used as a positive control for BP binding.
as §2

The test system of data set [10] is P. multocida. The data set can be described thus: Bacterial translocation through polarized keratinocyte cultures (Transwell). The settings on record: 100 μg/ml; vs PBS or SCRM. The class given is cell-based, Pasteurella multocida. As to the method: as §3
as §4, with “intervals. […]” for “intervals.”

Data set [11] deals with Acapsular GAS. The data set can be described thus: Fluorometry binding of FITC-conjugated peptide to capsule-deficient GAS. Details: species or system Group A Streptococcus. On the procedure: as §1, §2
The subject of data set [12] is S. equi. As to the kind of experiment: Bacterial translocation through polarized keratinocyte cultures (Transwell). In kind it is cell-based, Streptococcus equi. The settings on record: 100 μg/ml; vs PBS or SCRM. On the procedure: as §3
as §4, with “intervals. […]” for “intervals.”

Setting [13] is: fluorometry, HABP35 also confocal microscopy, data not shown.

Non-standard residues stand in square brackets, D forms with d. Residues, ends and D or L forms follow the SMILES beside them. No end group written: not given here.

In the case of `CC[C@H](C)[C@H](NC(=O)[C@H](CCCCN)NC(=O)[C@H](CCC(N)=O)NC(=O)[C@H](CCCCN)NC(=O)[C@@H](N)CC(C)C)C(=O)N[C@@H](CCCCN)C(=O)N[C@@H](Cc1c[nH]cn1)C(=O)N[C@H](C(=O)N[C@H](C(=O)N[C@@H](CCCCN)C(=O)N[C@@H](CC(C)C)C(=O)N[C@@H](CCCCN)C(=O)N[C@H](C(=O)N[C@H](C(=O)N[C@H](C(=O)N[C@@H](CCCCN)C(=O)N[C@@H](CC(C)C)C(=O)N[C@@H](CCCNC(=N)N)C(=O)N[C@@H](CO)C(=O)N[C@@H](CCC(N)=O)C(=O)N[C@@H](CC(C)C)C(=O)N[C@H](C(=O)N[C@@H](CCCCN)C(=O)N[C@@H](CCCNC(=N)N)C(=O)N[C@@H](CCCCN)C(=O)N[C@@H](CCC(N)=O)C(=O)N[C@@H](CC(N)=O)C(N)=O)C(C)C)C(C)C)C(C)C)C(C)C)C(C)C)C(C)C` [HABP35] (H-LKQKIKHVVKLKVVVKLRSQLVKRKQN-NH2), the hemolytic activity entry in [1] (highest concentration tested, 512 μg/mL, 1% human red blood cells, 12 hours, 37° C.) was “minor hemolytic activity”.

Consider `CC[C@H](C)[C@H](NC(=O)CN)C(=O)NCC(=O)N[C@@H](C)C(=O)N[C@H](C(=O)N[C@@H](CC(C)C)C(=O)N[C@@H](CCCCN)C(=O)N[C@H](C(=O)N[C@@H](CC(C)C)C(=O)N[C@H](C(=O)N[C@H](C(=O)NCC(=O)N[C@@H](CC(C)C)C(=O)N1CCC[C@H]1C(=O)N[C@@H](C)C(=O)N[C@@H](CC(C)C)C(=O)N[C@H](C(=O)N[C@@H](CO)C(=O)N[C@@H](Cc1c[nH]c2ccccc12)C(=O)N[C@H](C(=O)N[C@@H](CCCCN)C(=O)N[C@@H](CCCNC(=N)N)C(=O)N[C@@H](CCCCN)C(=O)N[C@@H](CCCNC(=N)N)C(=O)N[C@@H](CCC(N)=O)C(=O)N[C@@H](CCC(N)=O)C(N)=O)[C@@H](C)CC)[C@@H](C)CC)[C@@H](C)O)[C@@H](C)O)C(C)C)C(C)C` [Melittin], for which, in [2], the “average net binding to HA” value is −503±5 RU. In [1] (1% human red blood cells, 12 hours), the “concentration giving levels of hemolysis comparable to HABP35 at 512 μg/mL” value was “less than 1 μg/mL”. In addition, the “potency as a hemolytic agent relative to HABP35” value in [1] (comparison with HABP35) is on record as “more than 500 times”.

Take “STMMSRSHKTRSHHV (all d isomers) ([dS][dT][dM][dM][dS][dR][dS][dH][dK][dT][dR][dS][dH][dH][dV]-NH2) [HABP42]”: the “bacterial burden at the wound site compared with PBS” value in [3] is recorded as “decrease in bacterial burden”.

Consider STMMSRSHKTRSHHV [HABP01], for which the “binding to encapsulated GAS (in words)” value in data set [4] (setting [13]) is listed as “bound specifically”. Also, the Relative binding is reported as 11840 ± 230 relative fluorescent units in data set [4] (substrate in well: Wild Type GAS, 10 μg/ml FITC-conjugated peptide); 9640 ± 360 relative fluorescent units in [9] (substrate in well: HA (1 mg/ml), 10 μg/ml FITC-conjugated peptide); 1940 ± 70 relative fluorescent units in data set [11] (substrate in well: Acapsular GAS, 10 μg/ml FITC-conjugated peptide). Further, the “reduction in the translocation of GAS across an intact keratinocyte culture” value in [5] (100 μg/ml, treatment of keratinocytes or bacteria) is recorded as 75-85%. For the same compound, the “log increase in CFU's” value in data set [6] was “over 1 log”. Further, the “reduction in translocation of Staphylococcus aureus” value in data set [7] turned out to be 73%. The “internalization of HA-encapsulated bacteria by keratinocytes relative to SCRM-treated or untreated samples” value in data set [8] is reported as “approximately 40 fold”. Further, the “binding to purified HA (in words)” value in [9] (fluorometry) is listed as “bound specifically”. In data set [10], the “reduction in translocation of P. multocida” value is reported as 98%. Besides, the “binding to unencapsulated GAS (in words)” value in data set [11] (setting [13]) is on record as “not to unencapsulated GAS”. In data set [12], the “reduction in translocation of S. equi” value is listed as 98%.

For the compound “VSKLRSQLVKRKQN (VSKLRSQLVKRKQN-NH2) [HABP33]”, the “decrease in the numbers of translocating GAS bacteria” value in data set [5] (two hours after addition of GAS) is given as ~90%.
